{"source": "patent US20080255240A1", "about": "“Sulfonamide Derivatives” (Novo Nordisk A/S, priority 2004, published 2008)", "note": "Structures can show the parent of a compound that is named as a salt."}
{"units": {"melting point": "°C"}}
{"smiles": "Cc1cc(C(C)(C)C)c(O)c(S(=O)(=O)Nc2ccc(C#N)cc2Cl)c1", "note": "[Example 3, 3-tert-Butyl-N-(2-chloro-4-cyano-phenyl)-2-hydroxy-5-methyl-benzenesulfonamide]", "melting point": "101 to 105"}
{"smiles": "Cc1cc(C(C)(C)C)c(O)c(S(=O)(=O)Nc2ccc(C#N)c(C(F)(F)F)c2)c1", "melting point": "159 to 162"}
{"smiles": "CC(C)(C)c1cc(C(C)(C)C)c(O)c(S(=O)(=O)Nc2ccc([N+](=O)[O-])cc2Cl)c1", "note": "[Example 6, 3,5-Di-tert-butyl-N-(2-chloro-4-nitro-phenyl)-2-hydroxy-benzenesulfonamide]", "melting point": "158 to 161"}
{"smiles": "COc1ccc(NS(=O)(=O)c2cc(C)cc(C(C)(C)C)c2O)cc1", "note": "[Example 5, 3-tert-Butyl-2-hydroxy-N-(4-methoxy-phenyl)-5-methyl-benzenesulfonamide]", "melting point": "130 to 134"}
{"smiles": "Cc1cc(C(C)(C)C)c(O)c(S(=O)(=O)Nc2ccc([N+](=O)[O-])cc2Cl)c1", "note": "[Example 1, 3-tert-Butyl-N-(2-chloro-4-nitro-phenyl)-2-hydroxy-5-methyl-benzenesulfonamide]", "melting point": "239 to 243"}
{"smiles": "CCC(C)c1cc(C(C)(C)C)c(O)c(S(=O)(=O)Nc2ccc([N+](=O)[O-])cc2Cl)c1", "note": "(stereo not shown) (as salt: Na) [Example 7, 5-sec-Butyl-3-tert-butyl-N-(2-chloro-4-nitro-phenyl)-2-hydroxy-benzenesulfonamide]", "melting point": "106 to 108"}
{"smiles": "Cc1cc(C(C)(C)C)c(O)c(S(=O)(=O)Nc2ccc(I)cc2)c1", "note": "[Example 4, 3-tert-Butyl-2-hydroxy-N-(4-iodo-phenyl)-5-methyl-benzenesulfonamide]", "melting point": "184 to 185"}
